In one data set the target is T1, human PLK1 (Homo sapiens, UniProt P53350).
T1 construct: FLAG (DYKDDDDK) (N); made in house; host or cells: Sf21 insect cells, recombinant baculovirus (pFASTBAC1, Bac-to-Bac)
Put plainly: PLK1 in vitro enzymatic activity assay (phosphorylation of alpha casein by recombinant PLK1). Format: biochemical. The note with it: recombinant FLAG-tagged PLK1, alpha casein substrate, 500 nmol/L ATP, 40 min at room temperature; read-out: pIC50 (PLK1) (converted). The essentials:
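Recombinant PLK1 from baculovirus-infected Sf21 cells (50 ng) phosphorylated 3 μg alpha casein for 40 min at room temperature in HEPES pH 7.5, Mg acetate, DTT buffer with 500 nmol/L ATP plus [γ-32P]ATP. TCA-precipitated phosphoprotein was filter-captured, washed, and counted by scintillation.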

T1 sequence (P53350 with tags, fused parts or gaps): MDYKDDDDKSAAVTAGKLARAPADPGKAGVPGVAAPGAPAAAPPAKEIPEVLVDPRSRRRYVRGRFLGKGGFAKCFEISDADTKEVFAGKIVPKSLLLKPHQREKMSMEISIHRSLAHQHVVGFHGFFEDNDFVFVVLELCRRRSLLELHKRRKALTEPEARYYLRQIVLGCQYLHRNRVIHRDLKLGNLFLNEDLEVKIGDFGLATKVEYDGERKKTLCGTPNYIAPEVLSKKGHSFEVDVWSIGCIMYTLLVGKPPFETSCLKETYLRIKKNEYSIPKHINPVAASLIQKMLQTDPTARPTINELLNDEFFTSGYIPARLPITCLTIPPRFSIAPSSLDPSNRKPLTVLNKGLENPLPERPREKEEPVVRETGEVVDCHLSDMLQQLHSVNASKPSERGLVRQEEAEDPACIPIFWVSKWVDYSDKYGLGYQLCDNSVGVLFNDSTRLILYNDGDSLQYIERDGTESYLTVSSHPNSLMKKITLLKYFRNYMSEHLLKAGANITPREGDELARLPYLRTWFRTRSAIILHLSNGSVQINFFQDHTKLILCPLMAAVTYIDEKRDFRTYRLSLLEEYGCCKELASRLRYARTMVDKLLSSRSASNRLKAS

For `COc1cc(C(=O)NC2CCN(C(=O)CN(C)C)CC2)ccc1Nc1ncc2c(n1)N(C1CCCCC1)CC(F)(F)C(=O)N2C` [Compound 71, 4-(9-cyclohexyl-7,7-difluoro-5-methyl-6-oxo-6,7,8,9-tetrahydro-5H-pyrimido[4,5-b][1,4]diazepin-2-ylamino)-N-(1-(2-(dimethylamino)acetyl)piperidin-4-yl)-3-methoxybenzamide], the melting point (in general, the temperature, or range, at which the solid turns liquid) fell in the range of 190 to 191 °C. In addition, the IC50 on human PLK1 is at most 2 nM. The compound `COc1cc(C(=O)NN2CCN(C)CC2)ccc1Nc1ncc2c(n1)N(C1CCCC1)CC(F)(F)C(=O)N2C` [Compound 6, 4-(9-cyclopentyl-7,7-difluoro-5-methyl-6-oxo-6,7,8,9-tetrahydro-5H-pyrimido[4,5-b][1,4]diazepin-2-ylamino)-3-methoxy-N-(4-methylpiperazin-1-yl)benzamide] had a melting point of 168 to 174 °C. `COc1cc(C(=O)N[C@@H]2CCN(C)C2)ccc1Nc1ncc2c(n1)N(C1CCCCC1)CC(F)(F)C(=O)N2C` [Compound 39, (R)-4-(9-cyclohexyl-7,7-difluoro-5-methyl-6-oxo-6,7,8,9-tetrahydro-5H-pyrimido[4,5-b][1,4]diazepin-2-ylamino)-3-methoxy-N-(1-methylpyrrolidin-3-yl)benzamide] returned a melting point of 98 to 99 °C. The IC50 on human PLK1 was above 2 nM. In the case of `COc1cc(C(=O)NN2CCN(C3CCCC3)CC2)ccc1Nc1ncc2c(n1)N(C1CCCCC1)CC(F)(F)C(=O)N2C` [Compound 52, 4-(9-cyclohexyl-7,7-difluoro-5-methyl-6-oxo-6,7,8,9-tetrahydro-5H-pyrimido[4,5-b][1,4]diazepin-2-ylamino)-N-(4-cyclopentylpiperazin-1-yl)-3-methoxybenzamide], the melting point fell in the range of 98 to 99 °C. The IC50 on human PLK1 is above 2 nM. For `COc1cc(C(=O)NC2CN(C)C2)ccc1Nc1ncc2c(n1)N(C1CCCC1)CC(F)(F)C(=O)N2C` [Compound 4, 4-(9-Cyclopentyl-7,7-difluoro-5-methyl-6-oxo-6,7,8,9-tetrahydro-5H-pyrimido[4,5-b][1,4]diazepin-2-ylamino)-3-methoxy-N-(1-methylazetidin-3-yl)benzamide] the same measures were 157 to 162 °C and at most 2 nM. For `COc1cc(C(=O)N[C@H]2CCNC2)ccc1Nc1ncc2c(n1)N(C1CCCCC1)CC(F)(F)C(=O)N2C` [Compound 72, (S)-4-(9-cyclohexyl-7,7-difluoro-5-methyl-6-oxo-6,7,8,9-tetrahydro-5H-pyrimido[4,5-b][1,4]diazepin-2-ylamino)-3-methoxy-N-(pyrrolidin-3-yl)benzamide] the same measures were 258 to 263 °C and at most 2 nM. The matching figures for `COc1cc(C(=O)NC2CCC(N(C)C)CC2)ccc1Nc1ncc2c(n1)N(C1CCCCC1)CC(F)(F)C(=O)N2C` (centres unmarked) [Compound 49, 4-(9-cyclohexyl-7,7-difluoro-5-methyl-6-oxo-6,7,8,9-tetrahydro-5H-pyrimido[4,5-b][1,4]diazepin-2-ylamino)-N-(4-(dimethylamino)cyclohexyl)-3-methoxybenzamide]: 208 to 214 °C and at most 2 nM. As for `CN1CCC(NC(=O)c2ccc(Nc3ncc4c(n3)N(C3CCCC3)CC(F)(F)C(=O)N4C)c(C(F)(F)F)c2)CC1` [Compound 30, 4-(9-cyclopentyl-7,7-difluoro-5-methyl-6-oxo-6,7,8,9-tetrahydro-5H-pyrimido[4,5-b][1,4]diazepin-2-ylamino)-N-(1-methylpiperidin-4-yl)-3-(trifluoromethyl)benzamide], on human PLK1, the IC50 is above 2 nM. Same read-out and setting: the same measure for `COc1cc(C(=O)NC2CCN(C)CC2)ccc1Nc1ncc2c(n1)N(C1CC[C@@H](C)C1)CC(F)(F)C(=O)N2C` (stereo partly drawn) [Compound 83, 4-(7,7-difluoro-5-methyl-9-((3R)-3-methylcyclopentyl)-6-oxo-6,7,8,9-tetrahydro-5H-pyrimido[4,5-b][1,4]diazepin-2-ylamino)-3-methoxy-N-(1-methylpiperidin-4-yl)benzamide]: at most 2 nM. Same read-out and setting: the same measure for `C=C[C@@]1(F)CN(C2CCCC2)c2nc(Nc3cc(F)c(C(=O)NC4CCN(C)CC4)cc3OC)ncc2N(C)C1=O` [Compound 113, (R)-4-(9-cyclopentyl-7-fluoro-5-methyl-6-oxo-7-vinyl-6,7,8,9-tetrahydro-5H-pyrimido[4,5-b][1,4]diazepin-2-ylamino)-2-fluoro-5-methoxy-N-(1-methylpiperidin-4-yl)benzamide]: at most 2 nM; for `CN1C(=O)C(F)(F)CN(C2CCCC2)c2nc(Nc3ccc4[nH]cc(C5=CCNCC5)c4c3)ncc21` [Compound 21, 9-Cyclopentyl-7,7-difluoro-5-methyl-2-(3-(1,2,3,6-tetrahydropyridin-4-yl)-1H-indol-5-ylamino)-8,9-dihydro-5H-pyrimido[4,5-b][1,4]diazepin-6(7H)-one]: above 2 nM.

Take `CCN1CC(NC(=O)c2cc(OC)c(Nc3ncc4c(n3)N(C3CCCC3)CC(F)(F)C(=O)N4C)cc2F)C1` [Compound 131, 4-(9-cyclopentyl-7,7-difluoro-5-methyl-6-oxo-6,7,8,9-tetrahydro-5H-pyrimido[4,5-b][1,4]diazepin-2-ylamino)-N-(1-ethylazetidin-3-yl)-2-fluoro-5-methoxybenzamide]: on human PLK1, the IC50 was at most 2 nM. In the case of `COc1cc(C(=O)N[C@H]2CC[C@H](OP(=O)(O)O)CC2)ccc1Nc1ncc2c(n1)N(C1CCCCC1)CC(F)(F)C(=O)N2C` [Compound 41, (1R,4R)-4-(4-(9-cyclohexyl-7,7-difluoro-5-methyl-6-oxo-6,7,8,9-tetrahydro-5H-pyrimido[4,5-b][1,4]diazepin-2-ylamino)-3-methoxybenzamido)cyclohexyl dihydrogen phosphate], the IC50 at human PLK1 is at most 2 nM. On to `COc1cc(C(=O)N2CCN(CC3CC3)CC2)ccc1Nc1ncc2c(n1)N(C1CCCC1)CC(F)(F)C(=O)N2C` [Compound 134, 9-cyclopentyl-2-(4-(4-(cyclopropylmethyl)piperazine-1-carbonyl)-2-methoxyphenylamino)-7,7-difluoro-5-methyl-8,9-dihydro-5H-pyrimido[4,5-b][1,4]diazepin-6(7H)-one], for which the IC50 at human PLK1 was above 2 nM. Take `COc1cc(C(=O)NC2CCNCC2)ccc1Nc1ncc2c(n1)N(C1CCCC1)CC(F)(F)C(=O)N2C` [Compound 10, 4-(9-cyclopentyl-7,7-difluoro-5-methyl-6-oxo-6,7,8,9-tetrahydro-5H-pyrimido[4,5-b][1,4]diazepin-2-ylamino)-3-methoxy-N-(piperidin-4-yl)benzamide]: the IC50 at human PLK1 is at most 2 nM. The same measure, in the same setting: the same measure for `COc1cc(C(=O)N[C@H]2CCCN(C)C2)ccc1Nc1ncc2c(n1)N(C1CCCCC1)CC(F)(F)C(=O)N2C` [Compound 74, (S)-4-(9-cyclohexyl-7,7-difluoro-5-methyl-6-oxo-6,7,8,9-tetrahydro-5H-pyrimido[4,5-b][1,4]diazepin-2-ylamino)-3-methoxy-N-(1-methylpiperidin-3-yl)benzamide]: at most 2 nM; for `COc1cc(C(=O)NC2CCN(CCO)CC2)ccc1Nc1ncc2c(n1)N(C1CCCCC1)CC(F)(F)C(=O)N2C` [Compound 44, 4-(9-cyclohexyl-7,7-difluoro-5-methyl-6-oxo-6,7,8,9-tetrahydro-5H-pyrimido[4,5-b][1,4]diazepin-2-ylamino)-N-(1-(2-hydroxyethyl)piperidin-4-yl)-3-methoxybenzamide]: at most 2 nM; for `COc1cc(C(=O)NCCCN(C)C)ccc1Nc1ncc2c(n1)N(C1CCCCC1)CC(F)(F)C(=O)N2C` [Compound 54, 4-(9-cyclohexyl-7,7-difluoro-5-methyl-6-oxo-6,7,8,9-tetrahydro-5H-pyrimido[4,5-b][1,4]diazepin-2-ylamino)-N-(3-(dimethylamino)propyl)-3-methoxybenzamide]: above 2 nM. Same read-out and setting: the same measure for `CCc1cc(C(=O)NC2CCN(C)CC2)ccc1Nc1ncc2c(n1)N(C1CCCC1)CC(F)(F)C(=O)N2C` [Compound 27, 4-(9-Cyclopentyl-7,7-difluoro-5-methyl-6-oxo-6,7,8,9-tetrahydro-5H-pyrimido[4,5-b][1,4]diazepin-2-ylamino)-3-ethyl-N-(1-methylpiperidin-4-yl)benzamide]: at most 2 nM; for `COc1cc(C(=O)NC2CN(C(C)=O)C2)ccc1Nc1ncc2c(n1)N(C1CCCCC1)CC(F)(F)C(=O)N2C` [Compound 69, N-(1-acetylazetidin-3-yl)-4-(9-cyclohexyl-7,7-difluoro-5-methyl-6-oxo-6,7,8,9-tetrahydro-5H-pyrimido[4,5-b][1,4]diazepin-2-ylamino)-3-methoxybenzamide]: at most 2 nM. On the same count and under the same terms, the same measure for `CCN1CC(NC(=O)c2ccc(Nc3ncc4c(n3)N(C3CCCCC3)CC(F)(F)C(=O)N4C)c(OC)c2)C1` [Compound 126, 4-(9-cyclohexyl-7,7-difluoro-5-methyl-6-oxo-6,7,8,9-tetrahydro-5H-pyrimido[4,5-b][1,4]diazepin-2-ylamino)-N-(1-ethylazetidin-3-yl)-3-methoxybenzamide]: above 2 nM. As to `COc1cc(C(=O)NC2CCNCC2)ccc1Nc1ncc2c(n1)N(C1CCCCC1)CC(F)(F)C(=O)N2C` [Compound 70, 4-(9-cyclohexyl-7,7-difluoro-5-methyl-6-oxo-6,7,8,9-tetrahydro-5H-pyrimido[4,5-b][1,4]diazepin-2-ylamino)-3-methoxy-N-(piperidin-4-yl)benzamide], the IC50 on human PLK1 was at most 2 nM. On to `C=C[C@@]1(F)CN(C2CCCC2)c2nc(Nc3ccc(C(=O)NC4CCN(CCOP(=O)(O)O)CC4)cc3OC)ncc2N(C)C1=O` [Compound 111, (R)-2-(4-(4-(9-cyclopentyl-7-fluoro-5-methyl-6-oxo-7-vinyl-6,7,8,9-tetrahydro-5H-pyrimido[4,5-b][1,4]diazepin-2-ylamino)-3-methoxybenzamido)piperidin-1-yl)ethyl dihydrogen phosphate], for which, on human PLK1, the IC50 is at most 2 nM.

(Values after US20110201818A1, “POLO-LIKE KINASE INHIBITORS” (TAKEDA PHARMACEUTICAL COMPANY LIMITED, priority 2007, published 2011).)
